Laboratory results as given in USRE46558E1, “Compositions and methods to treat diseases characterized by cellular proliferation and angiogenesis” (Paloma Pharmaceuticals, Inc., priority 2005, dated 2017).
Read-outs that look alike come from different tables or passages of the source.

How the values were obtained:
[1] = tested on: human umbilical vein endothelial cells, HUVECs (proliferating); assay: HUVEC proliferation assay (proliferating, b-FGF or VEGF stimulated); format: cell-based; parameters: inhibition: dose or concentration left out as unconfirmed; settings: for inhibition: Homo sapiens, proliferating HUVEC, 48 h, read-out: HUVECp % inhibition
Description: (§1) Anti-tumor (anti-proliferative for cancer cells), anti-angiogenic activity (anti-proliferative for endothelial cells) measured in vitro as inhibition of proliferation binding to estrogen receptor alpha and beta HUVEC Proliferation. Inhibition of the proliferation of human umbilical vein endothelial cells, HUVECs, is shown as one measure of anti-angiogenic activity. HUVECS and the required media complements were purchased from Cascade Biologics (Portland, Oreg.) and the growth and maintenance of the cultures was as described by the manufacturer. The proliferation assay was carried out by seeding the HUVECs in 96-well plates at a density of 1,000 cells/well in complete medium. Following a 24 h plating period, the cells were starved for 24 h in 0.5% serum before being treated with SG (“Signal Gene” now “Palomid”) angiogenic inhibitors in the presence of 10 ng/ml b-FGF or dosing ranging presence of either b-FGF or VEGF in complete medium. After 48 h, cell number was determined using a calorimetric method as described by the supplier (Promega Corp., Madison, Wis.). The results were expressed as the percentage of the maximal b-FGF or VEGF response in the absence of angiogenic inhibitors. Non-proliferating endothelial cells were assayed by growing HUVECs to quiescence in 96-well plates and treating with angiogenic inhibitors for 48 h. Initially, 5,000 cells/well were seeded and confluence was achieved the next day. The plates were incubated another 24 h to ensure growth arrest before treatment with angiogenic inhibitors. Cell number was determined as outlined above.

[2] = tested on: HUVEC quiescent; assay: Non-proliferating (quiescent) HUVEC assay; format: cell-based; parameters: dose or concentration left out as unconfirmed; settings: Homo sapiens, 48 h, read-out: HUVECq % inhibition
Description: as §1

[3] = tested on: MCF-7 breast cancer cells; assay: Cancer cell line proliferation, breast; format: cell-based; parameters: dose or concentration left out as unconfirmed; settings: Homo sapiens, MCF7
Description: (§2) Cancer Cell Lines. Measurement of the inhibition of tumor cell growth is one measure of anti-cancer activity. Two human cancer cell lines were used to assess the effects of SG angiogenic inhibitors on the proliferation of these cells. The cell lines were MCF-7 breast cancer cells and the colon carcinoma cell line, HCT-116. All cell lines were obtained from Americans Type Tissue Culture (Manassas, Va.) and maintained in their respective media as described by the supplier. The proliferation studies were carried out essentially as described for the proliferating endothelial cells.

[4] = tested on: colon carcinoma cell line, HCT-116; assay: Cancer cell line proliferation, colon; format: cell-based; parameters: dose or concentration left out as unconfirmed; settings: Homo sapiens
Description: as §2

[5] = molecular target: T1, human estrogen receptor beta (Homo sapiens, UniProt Q92731); assay: ER binding assay, [3H]estradiol competition, ERb; settings: 0.5 nM [3H]estradiol, 4° C. overnight; na = no activity
T1 construct: made in house; host or cells: rabbit reticulocyte lysate, coupled in vitro transcription-translation (Promega TNT kit)
T1 sequence (Q92731 whole entry): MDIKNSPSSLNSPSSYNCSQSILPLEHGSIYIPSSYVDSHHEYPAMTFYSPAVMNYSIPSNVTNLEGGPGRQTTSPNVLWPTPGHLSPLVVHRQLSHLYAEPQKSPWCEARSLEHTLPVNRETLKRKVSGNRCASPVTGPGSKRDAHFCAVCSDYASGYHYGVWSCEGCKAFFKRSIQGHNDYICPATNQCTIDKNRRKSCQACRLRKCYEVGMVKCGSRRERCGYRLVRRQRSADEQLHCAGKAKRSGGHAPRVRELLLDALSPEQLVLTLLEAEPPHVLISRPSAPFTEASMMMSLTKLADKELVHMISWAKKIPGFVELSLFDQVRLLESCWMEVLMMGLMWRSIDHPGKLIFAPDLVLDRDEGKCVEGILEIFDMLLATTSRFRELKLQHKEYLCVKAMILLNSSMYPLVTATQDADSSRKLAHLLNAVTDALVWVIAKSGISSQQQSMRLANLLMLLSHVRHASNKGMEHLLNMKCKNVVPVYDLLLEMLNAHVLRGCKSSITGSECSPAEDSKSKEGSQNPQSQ
Description: ER Binding Assay. Derivatives which bind and transduce a signal through estrogen receptors would not be considered a positive activity as such an activity could enhance cancer growth as well as induce angiogenesis. Derivatives which either have little or no binding to estrogen receptors (“ER”) would be one desired activity. […] Human cDNAs encoding ERa and ERb were used as templates to express receptor proteins in vitro. The proteins were produced with rabbit reticulocyte lysates as supplied by Promega (TNT kit) that couples transcription and translation in a single reaction. The amount of template used in each reaction was determined empirically and expression was monitored in parallel reactions where [35S]methionine was incorporated into the receptor followed by gel electrophoresis and exposure to film. Binding reactions were carried out in […] final volumes in TEG buffer (10 mM tris, pH 7.5, 1.5 mM EDTA, 10% glycerol). […] The reactions were incubated at 4° C. overnight and bound E2 was quantified by adding […] dextran-coated charcoal. […] The maximum binding was determined by competing bound E2 with only the ethanol vehicle. […] Values for percent inhibition were calculated based on the maximal E2 binding. The data were plotted and Ki values calculated using the Prism Software. […]

[6] = % of maximal b-FGF or VEGF response

Row | SMILES | inhibition [1, 6] [%] | inhibition [2] [%] | inhibition [3] [%] | inhibition [4] [%] | inhibition of bFGF-stimulated endothelial cell proliferation ([1]; FIG. 1A, bFGF-stimulated) | inhibition of VEGF-stimulated endothelial cell proliferation ([1]; FIG. 1B, VEGF-stimulated) | inhibition [1] [%] | hERb % binding [5] [%]
1 | COc1cc2c(cc1OCc1ccccc1)oc(=O)c1cc(C(C)O)ccc12 (stereo not shown) [Palomid 393] | 71 | 21 | 11 | 26 |  |  |  | 
2 | COc1ccc(COc2cc3oc(=O)c4cc(C(C)O)ccc4c3cc2OC)cc1 (stereo not shown) [Palomid 529] | 113 | 31 | 32 | 20 | inhibition | inhibition | 65 | 
3 | COc1ccccc1COc1cc2oc(=O)c3cc(C(C)O)ccc3c2cc1OC (stereo not shown) [Palomid 545] | 100 | 22 | 17 | 21 |  |  | 32 | 
4 | COc1cc(COc2cc3oc(=O)c4cc(C(C)=O)ccc4c3cc2OC)cc(OC)c1 [Palomid 546] | 100 | 23 | 13 |  |  |  | 18 | 
5 | COc1cc(COc2cc3oc(=O)c4cc(C(C)O)ccc4c3cc2OC)cc(OC)c1 (stereo not shown) [Palomid 547] | 106 | 25 | 35 | 17 |  |  | 42 | 
6 | CCc1ccc2c(c1)c(=O)oc1cc(OCc3ccc(OC)cc3)c(OC)cc12 [Palomid 550] | 77 | 14 | 28 | < 10 |  |  |  | 
7 | CCc1ccc2c(c1)c(=O)oc1cc(OCc3ccccc3OC)c(OC)cc12 [Palomid 551] | 62 |  | 25 |  |  |  |  | 
8 | COc1cc2c(cc1OCc1ccc(C)cc1)oc(=O)c1cc(C(C)=O)ccc12 [Palomid 559] | 96 | 35 | 17 |  |  |  | 72 | 
9 | CCc1ccc2c(c1)c(=O)oc1cc(OCc3ccc(Br)cc3)c(OC)cc12 [Palomid 560] | 53 |  |  |  |  |  |  | 
10 | COc1cc2c(cc1OCCc1ccccc1)oc(=O)c1cc(C(C)=O)ccc12 [Palomid 568] | 78 | 14 | < 10 |  |  |  |  | 37
11 | CCc1ccc2c(c1)c(=O)oc1cc(OCc3ccc(C(=O)OC)cc3)c(OC)cc12 [Palomid 573] | 145 | < 10 |  | < 10 |  |  |  | 
12 | CCc1ccc2c(c1)c(=O)oc1cc(OCc3ccc(C(=O)c4ccccc4)cc3)c(OC)cc12 [Palomid 574] | 74 | 29 |  | 24 |  |  | 13 | 
13 | COc1cc2c(cc1OCc1ccc(C)cc1)oc(=O)c1cc(C(C)O)ccc12 (stereo not shown) [Palomid 575] | 104 | 33 | 31 | 10 |  |  | 41 | 
